The results in this text go back to ChEMBL document CHEMBL1201862, “PubChem BioAssay data set” (2004).

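1) Cells in 96-well plates. 2) Compound, 48 h, 5 concentrations. 3) Linear interpolation between surrounding doses. 4) Unreached endpoint = highest concentration. GI50 = concentration required for 50% inhibition of growth.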 The source made the active and inactive calls. No stated cut-off is given here; in the data, active = GI50 up to about 1.1 µM and inactive = higher.

Some test systems named below: NCI-H460; HOP-92; 786-0; COLO 205; SW-620; NCI-H23; HCC 2998; HCT-15; SN12C; NCI-H226; LOX IMVI; HT-29; SF-295; SR; A549; T47D; SK-OV-3; NCI/ADR-RES; OVCAR-3; MDA-N.
Holding throughout (assay): NCI anticancer screen, dose series, 48 h

Turning to `CC(=O)OC1CN2CCC1CC2` (stereo unspecified) [ACECLIDINE], the GI50 with NCI-H460, in the assay with HOP-92, with 786-0, with COLO 205, in the assay with SW-620 and in the assay with NCI-H23 was > 100 µM (inactive) each time. For the same compound, the GI50 in the assay on HCC 2998 was > 100 µM (inactive); in the assay with HCT-15, more than 100 µM; in the assay on SN12C it was > 100 µM (inactive); in the assay on NCI-H226, > 100 µM (inactive); with LOX IMVI, > 100 µM (inactive); in the assay with HT-29, > 100 µM (inactive). Besides, the GI50 in the assay on SF-295, with SR, in the assay on A549, in the assay on T47D, in the assay with SK-OV-3 and with NCI/ADR-RES was > 100 µM (inactive) throughout. In addition, the GI50 in the assay on OVCAR-3 was > 100 µM (inactive).

Turning to `O=C(O)Cc1c(-c2ccc([N+](=O)[O-])cc2)c(=O)oc2cc(O)ccc12`, the GI50 in the assay on NCI-H460 was 28.9 µM (inactive); in the assay on 786-0, 36.5 µM (inactive); in the assay on COLO 205, 34.2 µM (inactive); in the assay on SW-620 it was 34.8 µM (inactive); in the assay on NCI-H23 it was 36.3 µM (inactive); in the assay on HCC 2998 it was 25.1 µM (inactive). Also, the GI50 in the assay with HCT-15 is 24.2 µM; in the assay on SN12C, 30.5 µM (inactive); with NCI-H226 it was 29 µM (inactive); in the assay on LOX IMVI, 36.1 µM (inactive); in the assay with HT-29, 11.6 µM (inactive); with SF-295 it was 16.1 µM (inactive). Also, the GI50 was 25.9 µM (inactive) with SR; 37.3 µM (inactive) in the assay on A549; 30.4 µM (inactive) with MDA-N; 35.2 µM (inactive) in the assay on SK-OV-3; 20 µM (inactive) in the assay with NCI/ADR-RES; 18.9 µM (inactive) in the assay with OVCAR-3.

Take `Oc1nnc(-c2ccc(F)cc2)cc1-c1ccccc1`: the GI50 in the assay on NCI-H460 was 89.7 µM (inactive); in the assay on HOP-92, > 100 µM (inactive); in the assay on 786-0 it was 45.7 µM (inactive); in the assay with COLO 205 it was > 100 µM (inactive); in the assay on SW-620, > 100 µM (inactive); with NCI-H23, > 100 µM (inactive). For the same compound, the GI50 was 78.5 µM (inactive) with HCC 2998; more than 100 µM in the assay on HCT-15; > 100 µM (inactive) in the assay on SN12C; > 100 µM (inactive) with NCI-H226; > 100 µM (inactive) in the assay on LOX IMVI; > 100 µM (inactive) in the assay with HT-29. Also, the GI50 in the assay on SF-295 is 40.4 µM (inactive); with SR, > 100 µM (inactive); with A549, > 100 µM (inactive); in the assay on T47D it was 44.2 µM (inactive); in the assay on SK-OV-3, 42.6 µM (inactive); in the assay on NCI/ADR-RES, > 100 µM (inactive). Further, the GI50 in the assay with OVCAR-3 is 23.4 µM (inactive).

Turning to `O=S1(=O)c2cnccc2N=C(NCc2ccccc2)N1c1ccccc1`, the GI50 is 49.7 µM (inactive) in the assay with NCI-H460; 57.5 µM (inactive) in the assay with HOP-92; > 100 µM (inactive) in the assay on 786-0; 61.9 µM (inactive) in the assay with COLO 205; > 100 µM (inactive) in the assay on SW-620; 64.3 µM (inactive) in the assay with NCI-H23. The GI50 in the assay with HCC 2998 was 67.1 µM (inactive); with HCT-15, 74.5 µM; with SN12C, 71.9 µM (inactive); in the assay with NCI-H226, > 100 µM (inactive); in the assay with LOX IMVI, > 100 µM (inactive); in the assay on HT-29, 81.1 µM (inactive). Moreover, the GI50 with SF-295 is 89.1 µM (inactive); with SR, 58.6 µM (inactive); in the assay with A549, > 100 µM (inactive); in the assay with T47D it was 35.8 µM (inactive); in the assay with SK-OV-3, > 100 µM (inactive); in the assay with NCI/ADR-RES it was 68.1 µM (inactive). For the same compound, the GI50 in the assay on OVCAR-3 is 45.7 µM (inactive).

In the case of `CC1=NN(c2nc(N)nc(COCc3nc(N)nc(N4N=C(C)CC4(C)C)n3)n2)C(C)(C)C1`, the GI50 with NCI-H460, in the assay on HOP-92, in the assay on 786-0, in the assay with COLO 205, with SW-620 and with NCI-H23 was > 100 µM (inactive) in each case. In addition, the GI50 in the assay on HCC 2998 was > 100 µM (inactive); with HCT-15 it was more than 100 µM; with SN12C it was > 100 µM (inactive); with NCI-H226, > 100 µM (inactive); with LOX IMVI, > 100 µM (inactive); in the assay on HT-29, > 100 µM (inactive). The GI50 with SF-295, in the assay on SR, with A549, in the assay on T47D, with SK-OV-3 and with NCI/ADR-RES was > 100 µM (inactive) in each case. Besides, in the assay on OVCAR-3, the GI50 was > 100 µM (inactive).

For the compound `CN(C)Cc1cc(C=O)cc(CN(C)C)c1O`, the GI50 was > 100 µM (inactive) in the assay with NCI-H460; > 100 µM (inactive) in the assay on HOP-92; > 100 µM (inactive) with 786-0; > 100 µM (inactive) in the assay on COLO 205; > 100 µM (inactive) in the assay on SW-620; 26.1 µM (inactive) with NCI-H23. Also, the GI50 is > 100 µM (inactive) in the assay on HCC 2998; more than 100 µM in the assay on HCT-15; > 100 µM (inactive) with SN12C; > 100 µM (inactive) in the assay on NCI-H226; > 100 µM (inactive) in the assay on LOX IMVI; > 100 µM (inactive) in the assay with HT-29. For the same compound, the GI50 in the assay on SF-295, in the assay with SR, in the assay with A549, with MDA-N, in the assay with NCI/ADR-RES and in the assay with OVCAR-3 was > 100 µM (inactive) throughout.

Turning to `Brc1ccccc2cc(-c3ccccc3)nc1-2`, the GI50 in the assay on NCI-H460 is 11.9 µM (inactive); with HOP-92 it was 3.32 µM (inactive); in the assay on 786-0 it was 1.92 µM (inactive); in the assay on COLO 205, 2.14 µM (inactive); in the assay with SW-620 it was 2.07 µM (inactive); in the assay on NCI-H23, 3.26 µM (inactive). For the same compound, the GI50 in the assay on HCC 2998 is 1.93 µM (inactive); in the assay on HCT-15, 2.24 µM; in the assay on SN12C, 1.87 µM (inactive); in the assay on NCI-H226, 5.05 µM (inactive); in the assay with LOX IMVI, 2.23 µM (inactive); in the assay on HT-29, 4.5 µM (inactive). The GI50 was 15.6 µM (inactive) in the assay with SF-295; 14.7 µM (inactive) with A549; 14.7 µM (inactive) with MDA-N; 8.69 µM (inactive) in the assay on SK-OV-3; 3.58 µM (inactive) with NCI/ADR-RES; 2.16 µM (inactive) with OVCAR-3.

Take `CCNC(=S)Nc1c(C#N)c2n(c1C(=O)OCC)CCCCC2`: the GI50 was > 100 µM (inactive) with NCI-H460; 42.3 µM (inactive) in the assay with HOP-92; 76.4 µM (inactive) in the assay with 786-0; > 100 µM (inactive) in the assay on COLO 205; > 100 µM (inactive) with SW-620; 69 µM (inactive) with NCI-H23. For the same compound, the GI50 with HCC 2998 was > 100 µM (inactive); with HCT-15 it was more than 100 µM; in the assay on NCI-H226, > 100 µM (inactive); with LOX IMVI, > 100 µM (inactive); in the assay on HT-29, > 100 µM (inactive); in the assay with SF-295, > 100 µM (inactive). For the same compound, the GI50 with SR, with T47D, with SK-OV-3 and in the assay on NCI/ADR-RES was > 100 µM (inactive) each time.
